Experiments:
[1] = pretreatment with 325 mg aspirin for 4 days before DMF; cited from earlier work
[2] = Comparative bioavailability study, monomethyl fumarate plasma pharmacokinetics, single dose, fasting; format: in vivo, human; conditions: Treatment A over Treatment B normalized to 180 mg DMF
Procedure: This was a single center, pilot, comparative bioavailability, open-label, randomized, single-dose, 2-period, 2-sequence, crossover study under fasting conditions. A total of 12 healthy adult male or female volunteers were included in this pilot study. For each period, subjects will be confined from at least 10 hours before dosing until 12 hours post-dose. There were a washout of 7 days or more between doses. The washout period could be increased for logistical considerations. Participation of each subject in this study lasted approximately 9 days.
The delayed-release capsule were placed on the subject's tongue. Subjects were instructed to suck the delayed-release capsule until the acetylsalicylic acid coating was dissolved or up to a maximum of 1 minute after the delayed-release capsule had been placed on the subject's tongue. The delayed-release capsule should not be chewed, bitten, or swallowed during that 1 minute period or until the coating is dissolved; only the saliva could be swallowed. The subject was instructed to give a hand sign once the acetylsalicylic acid coating was dissolved (the capsule should feel and taste different). Thereafter, or up to a maximum of 1 minute after the delayed-release capsule was placed on the subject's tongue, 240 mL of water was given to subjects to swallow the capsule. Time of dosing was set to the time the capsule was placed on the tongue. […]

## CC(=O)Oc1ccccc1C(=O)O [aspirin, acetylsalicylic acid]
[1]
  flushing incidence and intensity: reduced
  gastrointestinal events: did not affect
  pharmacokinetic profile of DMF: did not affect
[2]
  Cmax Change % (A over B): did not have significant impact
